Measured values as given in PubChem BioAssay AID328 (DTP/NCI, 2004).
Several values for one entry are separate records, joined by “and”; a condition that tells them apart may be missing. Identical values can stand only once. Inconclusive results and toxic doses are left out. How the source made its calls: active means survival T/C of 150% or more; inactive means T/C below 125% in these data.

Test system: BDF1 mice, P388 leukemia ip, median survival T/C
Test: NCI In Vivo Anticancer Drug Screen. Data for tumor model P388 Leukemia (intraperitoneal) in B6D2F1 (BDF1) mice
Conditions: endpoint: median survival time, higher = longer survival
Outline: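 Survival ratio, drug arm over vehicle arm, in mice with a transplanted tumour.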

[1] = dose: 4.0 mg/kg/injection, schedule: Q01DX009 (ip), vehicle: Klucel (hydroxypropylcellulose) (HPC)
[2] = dose: 100.0 mg/kg/injection, schedule: Q04DX003 (ip), vehicle: saline
[3] = dose: 200.0 mg/kg/injection, schedule: Q04DX003 (ip), vehicle: Klucel (hydroxypropylcellulose) (HPC)
[4] = dose: 100.0 mg/kg/injection, schedule: Q01DX009 (ip), vehicle: Klucel (hydroxypropylcellulose) (HPC)
[5] = dose: 200.0 mg/kg/injection, schedule: Q01DX009 (ip), vehicle: Klucel (hydroxypropylcellulose) (HPC)
[6] = dose: 400.0 mg/kg/injection, schedule: Q01DX009 (ip), vehicle: Klucel (hydroxypropylcellulose) (HPC)
[7] = dose: 25.0 mg/kg/injection, schedule: Q01DX009 (ip), vehicle: saline
[8] = dose: 25.0 mg/kg/injection, schedule: Q04DX003 (ip), vehicle: saline
[9] = dose: 50.0 mg/kg/injection, schedule: Q01DX009 (ip), vehicle: saline
[10] = dose: 50.0 mg/kg/injection, schedule: Q04DX003 (ip), vehicle: saline
[11] = dose: 100.0 mg/kg/injection, schedule: Q01DX009 (ip), vehicle: saline
[12] = dose: 50.0 mg/kg/injection, schedule: Q01DX009 (ip), vehicle: saline with Tween-80
[13] = dose: 100.0 mg/kg/injection, schedule: Q01DX009 (ip), vehicle: saline with Tween-80
[14] = dose: 100.0 mg/kg/injection, schedule: Q04DX003 (ip), vehicle: saline with Tween-80
[15] = dose: 200.0 mg/kg/injection, schedule: Q01DX009 (ip), vehicle: saline with Tween-80
[16] = dose: 200.0 mg/kg/injection, schedule: Q04DX003 (ip), vehicle: saline with Tween-80
[17] = dose: 400.0 mg/kg/injection, schedule: Q04DX003 (ip), vehicle: saline with Tween-80

Measured: T/C

Nc1nc(SN=Nc2ccc(S(=O)(=O)O)cc2)c2[nH]cnc2n1
inactive: [1] 113 % of control | dose: 9.0 mg/kg/injection, schedule: Q01DX009 (ip), vehicle: Klucel (hydroxypropylcellulose) (HPC) 121 % of control | dose: 20.0 mg/kg/injection, schedule: Q04DX003 (ip), vehicle: Klucel (hydroxypropylcellulose) (HPC) 108 % of control | dose: 30.0 mg/kg/injection, schedule: Q04DX003 (ip), vehicle: Klucel (hydroxypropylcellulose) (HPC) 120 % of control | dose: 45.0 mg/kg/injection, schedule: Q04DX003 (ip), vehicle: Klucel (hydroxypropylcellulose) (HPC) 112 % of control | dose: 66.0 mg/kg/injection, schedule: Q04DX003 (ip), vehicle: saline 122 % of control | [2] 118 % of control | dose: 150.0 mg/kg/injection, schedule: Q04DX003 (ip), vehicle: Klucel (hydroxypropylcellulose) (HPC) 115 % of control | dose: 150.0 mg/kg/injection, schedule: Q04DX003 (ip), vehicle: saline 113 % of control | [3] 116 % of control

O=C(N/N=C/c1ccccc1Cl)c1ccccc1
inactive: [4] 109 % of control | [5] 118 % of control | [6] 90 % of control

COc1ccc(C(=O)C(Br)C(Br)C(=O)O)cc1 (centres undefined)
inactive: dose: 12.5 mg/kg/injection, schedule: Q01DX009 (ip), vehicle: saline 100 % of control | [7] 95 % of control and 104 % of control | [8] 100 % of control | [9] 95 % of control and 112 % of control | [10] 109 % of control | [11] 105 % of control | [2] 86 % of control

c1ccc([I+]c2ccccc2)cc1
inactive: dose: 1.0 mg/kg/injection, schedule: Q01DX009 (ip), vehicle: saline 100 % of control | dose: 2.0 mg/kg/injection, schedule: Q01DX009 (ip), vehicle: saline 104 % of control | dose: 4.0 mg/kg/injection, schedule: Q01DX009 (ip), vehicle: saline 90 % of control | dose: 12.5 mg/kg/injection, schedule: Q04DX003 (ip), vehicle: saline sonified 115 % of control | dose: 12.5 mg/kg/injection, schedule: Q04DX003 (sc), vehicle: olive oil, sesame oil, peanut oil 96 % of control | dose: 25.0 mg/kg/injection, schedule: Q04DX003 (sc), vehicle: olive oil, sesame oil, peanut oil 100 % of control

COC(=O)[C@@H]1[C@@H](O)[C@H](OC(=O)c2cc(OC)c(OC)c(OC)c2)C[C@@H]2CN3CCc4c([nH]c5ccccc45)[C@H]3C[C@@H]21
inactive: dose: 1.56 mg/kg/injection, schedule: Q01DX009 (ip), vehicle: saline with Tween-80 90 % of control | dose: 2.0 mg/kg/injection, schedule: Q01DX009 (ip), vehicle: Klucel (hydroxypropylcellulose) (HPC) 100 % of control | dose: 3.13 mg/kg/injection, schedule: Q01DX009 (ip), vehicle: saline with Tween-80 90 % of control | [1] 100 % of control | dose: 6.25 mg/kg/injection, schedule: Q01DX009 (ip), vehicle: saline with Tween-80 86 % of control | dose: 8.0 mg/kg/injection, schedule: Q01DX009 (ip), vehicle: Klucel (hydroxypropylcellulose) (HPC) 100 % of control | dose: 16.0 mg/kg/injection, schedule: Q01DX009 (ip), vehicle: Klucel (hydroxypropylcellulose) (HPC) 100 % of control

COC(=O)C(CSCSC)NC(=O)/C=C/c1ccccc1C (centres undefined)
inactive: [12] 101 % of control | [13] 98 % of control | [14] 104 % of control | [15] 101 % of control | [16] 91 % of control | dose: 400.0 mg/kg/injection, schedule: Q01DX009 (ip), vehicle: saline with Tween-80 114 % of control | [17] 104 % of control

Nc1ccn(C2CC(O)C(CO)O2)c(=O)n1 (centres undefined)
inactive: dose: 2.3 mg/kg/injection, schedule: Q01DX009 (ip), vehicle: water 117 % of control | dose: 9.37 mg/kg/injection, schedule: Q01DX009 (ip), vehicle: water 117 % of control | dose: 18.75 mg/kg/injection, schedule: Q01DX009 (ip), vehicle: water 110 % of control

O=C(CCCl)N1CCN(C(=O)CCCl)CC1
inactive: dose: 66.0 mg/kg/injection, schedule: Q01DX009 (ip), vehicle: Klucel (hydroxypropylcellulose) (HPC) 104 % of control | [4] 90 % of control | dose: 100.0 mg/kg/injection, schedule: Q04DX003 (ip), vehicle: saline sonified 116 % of control | dose: 150.0 mg/kg/injection, schedule: Q01DX009 (ip), vehicle: Klucel (hydroxypropylcellulose) (HPC) 113 % of control | dose: 200.0 mg/kg/injection, schedule: Q04DX003 (ip), vehicle: saline sonified 108 % of control | [6] 95 % of control | dose: 400.0 mg/kg/injection, schedule: Q04DX003 (ip), vehicle: saline sonified 120 % of control

Cc1cc(Cl)ccc1NS(=O)(=O)c1ccc(Br)cc1
inactive: [14] 90 % of control | [16] 90 % of control | [17] 95 % of control

CC(=O)Nc1ccc(S(=O)(=O)N(CCO)c2ccccc2)cc1
inactive: dose: 12.5 mg/kg/injection, schedule: Q01DX009 (ip), vehicle: saline with Tween-80 104 % of control | dose: 12.5 mg/kg/injection, schedule: Q04DX003 (ip), vehicle: Klucel (hydroxypropylcellulose) (HPC) 100 % of control | dose: 25.0 mg/kg/injection, schedule: Q01DX009 (ip), vehicle: saline with Tween-80 104 % of control | dose: 25.0 mg/kg/injection, schedule: Q04DX003 (ip), vehicle: Klucel (hydroxypropylcellulose) (HPC) 109 % of control | [12] 96 % of control | dose: 50.0 mg/kg/injection, schedule: Q04DX003 (ip), vehicle: Klucel (hydroxypropylcellulose) (HPC) 109 % of control | [3] 87 % of control

CC(=O)O[C@H]1CC[C@H]2[C@@H]3CC[C@H]4CC=C(C#N)C[C@]4(C)[C@H]3CC[C@]12C
inactive: dose: 0.75 mg/kg/injection, schedule: Q01DX009 (ip), vehicle: Klucel (hydroxypropylcellulose) (HPC) 95 % of control | dose: 1.5 mg/kg/injection, schedule: Q01DX009 (ip), vehicle: Klucel (hydroxypropylcellulose) (HPC) 92 % of control and 100 % of control | dose: 3.0 mg/kg/injection, schedule: Q01DX009 (ip), vehicle: Klucel (hydroxypropylcellulose) (HPC) 104 % of control | dose: 6.0 mg/kg/injection, schedule: Q01DX009 (ip), vehicle: Klucel (hydroxypropylcellulose) (HPC) 103 % of control | dose: 25.0 mg/kg/injection, schedule: Q01DX009 (ip), vehicle: Klucel (hydroxypropylcellulose) (HPC) 88 % of control | dose: 50.0 mg/kg/injection, schedule: Q01DX009 (ip), vehicle: Klucel (hydroxypropylcellulose) (HPC) 100 % of control | [4] 95 % of control | dose: 100.0 mg/kg/injection, schedule: Q04DX003 (ip), vehicle: Klucel (hydroxypropylcellulose) (HPC) 109 % of control | [5] 100 % of control | [3] 109 % of control | dose: 400.0 mg/kg/injection, schedule: Q04DX003 (ip), vehicle: Klucel (hydroxypropylcellulose) (HPC) 86 % of control

NC(N)=NC(N)=Nc1cnccn1
inactive: [7] 110 % of control | [8] 100 % of control | [9] 120 % of control | [10] 100 % of control | [11] 120 % of control | [2] 95 % of control

CS(=O)(=O)CC(O)(c1ccc(Cl)cc1)c1ccccn1 (centres undefined)
inactive: [12] 91 % of control | [13] 91 % of control | [15] 97 % of control

Br/C(=N\Nc1nn[nH]n1)c1ccncc1
inactive: [7] 90 % of control | [9] 100 % of control and 104 % of control | [11] 90 % of control and 100 % of control | dose: 200.0 mg/kg/injection, schedule: Q01DX009 (ip), vehicle: saline 95 % of control and 113 % of control

O=C(NNc1ccc(F)cc1)C12CC3CC(CC(C3)C1)C2
inactive: [12] 104 % of control

CC(=O)OC12COC1CC(O)C1(C)C(=O)C(O)C3=C(C)C(O)CC(O)(C(OC(=O)c4ccccc4)C21)C3(C)C (centres undefined)
inactive: dose: 2.0 mg/kg/injection, schedule: Q01DX009 (ip), vehicle: alcohol 100 % of control | dose: 4.0 mg/kg/injection, schedule: Q01DX009 (ip), vehicle: alcohol 95 % of control | dose: 8.0 mg/kg/injection, schedule: Q01DX009 (ip), vehicle: alcohol 100 % of control | dose: 16.0 mg/kg/injection, schedule: Q01DX009 (ip), vehicle: alcohol 95 % of control
